One assay concerns U-698-M. Particulars: B-Cell Non-Hodgkin's Lymphoma. An outline of the steps: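 Plates with 1536 wells received cancer cell lines in 7.5 μl of DMEM/F12 or RPMI containing 10% FBS. After 24 hours at 37°C and 5% CO2, cells were dosed for 72 hours with final DMSO typically 0.2%, and viability was read by CellTiter-Glo 2.0 luminescence scaled between blank-well and DMSO-well means. The single-agent IC50 was taken from a logistic fit of the dose responses made with a non-linear mixed effects model, that logistic curve having two parameters.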

The subject of assay [1] is IGR-37 (Melanoma). The experiment in a line: combination Emax (second highest fraction inhibited in the dose matrix, 72 h); higher = more inhibition; extreme values may be limits of the assay. An outline of the steps: (§1)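 After 24 hours at 37°C and 5% CO2 in 1536-well plates, cells in DMEM/F12 or RPMI plus 10% FBS received two-drug dose matrices for 72 hours. Viability came from CellTiter-Glo 2.0 luminescence and was scaled as inhibition, anchored at 0 by vehicle wells and at 1 by blank wells. Combination Emax is taken as the second-highest inhibition in the matrix, and Bliss excess as the observed combination effect less EA + EB − EA·EB, with EA and EB the single-agent effects.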

The subject of assay [2] is VCaP (Prostate Carcinoma). The assay is described as above. An outline of the steps:
as §1

Assay [3] deals with ECC10 (Gastric Carcinoma). The description is as above. An outline of the steps:
as §1

Assay [4] concerns PANC-10-05 (Pancreatic Carcinoma). The assay is described as above. An outline of the steps: as §1
Assay [5] concerns BICR22 (Oral Cavity Carcinoma). The assay is described as above. An outline of the steps:
as §1

The subject of assay [6] is NCI-H2066 (Squamous Cell Lung Carcinoma). The assay is described as above. An outline of the steps:
as §1

Assay [7] has as its system ONS-76 (Other Solid Carcinomas). Described as above. An outline of the steps:
as §1

Assay [8] concerns NCI-H64 (Small Cell Lung Carcinoma). The description is as above. An outline of the steps:
as §1

Assay [9] relates to COLO-320-HSR (Colorectal Carcinoma). The assay is described as above. An outline of the steps:
as §1

The test system of assay [10] is TT (Thyroid Gland Carcinoma). The description is as above. An outline of the steps: as §1
Assay [11] relates to CAPAN-2 (Pancreatic Carcinoma). Described as above. An outline of the steps: as §1
Assay [12] relates to CCK-81 (Colorectal Carcinoma). Described as above. An outline of the steps: as §1
Assay [13] has as its system U-2-OS (Osteosarcoma). Described as above. An outline of the steps: as §1
The test system of assay [14] is NY (Osteosarcoma). Described as above. An outline of the steps:
as §1

Assay [15] has as its system FU97 (Gastric Carcinoma). The description is as above. An outline of the steps:
as §1

The test system of assay [16] is NCI-H1581 (Non-Small Cell Lung Carcinoma). The assay is described as above. An outline of the steps:
as §1

For assay [17], the system named is NCI-H1666 (Lung Adenocarcinoma). Described as above. An outline of the steps: as §1
Assay [18] concerns KARPAS-422 (B-Cell Non-Hodgkin's Lymphoma). Described as above. An outline of the steps:
as §1

For assay [19], the system named is IGR-37 (Melanoma). The experiment in a line: Bliss excess, mean over the matrix (fraction); higher = more synergy. An outline of the steps:
as §1

For assay [20], the system named is VCaP (Prostate Carcinoma). The assay is described as above. An outline of the steps:
as §1

Assay [21] concerns ECC10 (Gastric Carcinoma). The description is as above. An outline of the steps:
as §1

Assay [22] concerns PANC-10-05 (Pancreatic Carcinoma). The assay is described as above. An outline of the steps: as §1
In assay [23] the test system is BICR22 (Oral Cavity Carcinoma). The description is as above. An outline of the steps:
as §1

Assay [24] concerns NCI-H2066 (Squamous Cell Lung Carcinoma). The assay is described as above. An outline of the steps: as §1
Assay [25] deals with ONS-76 (Other Solid Carcinomas). The description is as above. An outline of the steps:
as §1

Assay [26] has as its system NCI-H64 (Small Cell Lung Carcinoma). The description is as above. An outline of the steps: as §1
The subject of assay [27] is COLO-320-HSR (Colorectal Carcinoma). The description is as above. An outline of the steps: as §1
The test system of assay [28] is TT (Thyroid Gland Carcinoma). The description is as above. An outline of the steps: as §1
The subject of assay [29] is CAPAN-2 (Pancreatic Carcinoma). The assay is described as above. An outline of the steps: as §1
In assay [30] the test system is CCK-81 (Colorectal Carcinoma). The description is as above. An outline of the steps:
as §1

For assay [31], the system named is U-2-OS (Osteosarcoma). The assay is described as above. An outline of the steps:
as §1

Assay [32] has as its system NY (Osteosarcoma). The assay is described as above. An outline of the steps:
as §1

Assay [33] has as its system FU97 (Gastric Carcinoma). The assay is described as above. An outline of the steps:
as §1

In assay [34] the test system is NCI-H1581 (Non-Small Cell Lung Carcinoma). The assay is described as above. An outline of the steps:
as §1

Assay [35] deals with NCI-H1666 (Lung Adenocarcinoma). The description is as above. An outline of the steps:
as §1

In assay [36] the test system is KARPAS-422 (B-Cell Non-Hodgkin's Lymphoma). Described as above. An outline of the steps:
as §1

As for `O=C(Nc1ccc2[nH]nc(-c3ccncc3)c2c1)[C@@H]1CCN(CC(=O)N2CCN(c3ccc(-c4ncccn4)cc3)CC2)C1`, the “IC50, cell viability 72 h” value in the assay with U-698-M (max 5 µM) is greater than 5 µM.

Turning to `O=c1[nH]cc(F)c(=O)[nH]1` [5-Fluorouracil], in the assay on U-698-M (max 20 µM), the “IC50, cell viability 72 h” value is greater than 20 µM.

On to `CN(C)CCCOc1ccc(-c2ccc3ncc4c(c3c2)n(C2CCOCC2)c(=O)n4C)cn1` [AZD0156], for which the “IC50, cell viability 72 h” value in the assay with U-698-M (max 3 µM) is greater than 3 µM.

As to `CC(C)n1c(=O)n(C)c2cnc3cc(F)c(-c4ccc(OCCCN5CCCCC5)nc4)cc3c21` [AZD1390], in the assay on U-698-M (max 0.3 µM), the “IC50, cell viability 72 h” value is greater than 0.3 µM.

`C=CCn1c(=O)c2cnc(Nc3ccc(N4CCN(C)CC4)cc3)nc2n1-c1cccc(C(C)(C)O)n1` [AZD1775]: the “IC50, cell viability 72 h” value in the assay with U-698-M (max 3 µM) came to 0.26 µM.

Take `CCN(CCO)CCCOc1ccc2c(Nc3cc(CC(=O)Nc4cccc(F)c4)[nH]n3)ncnc2c1` [AZD2811]: the “IC50, cell viability 72 h” value in the assay on U-698-M (max 1 µM) is greater than 1 µM.

For the compound `CN(CCO)CC[C@H](CSc1ccccc1)Nc1ccc(S(=O)(=O)NC(=O)c2ccc(N3CCC([C@@H](O)c4ccccc4-c4ccc(Cl)cc4)CC3)cc2)cc1S(=O)(=O)C(F)(F)F` [AZD4320], in the assay on U-698-M (max 1 µM), the “IC50, cell viability 72 h” value is greater than 1 µM.

Consider `COc1nnc2ccc(N3CCC(c4ccc(OCCN5CCN(C)C(=O)[C@H]5C)cc4)CC3)nn12` [AZD5153], for which the “IC50, cell viability 72 h” value in the assay on U-698-M (max 1 µM) amounted to 0.265 µM.

With `NC1(C(=O)N[C@@H](CCO)c2ccc(Cl)cc2)CCN(c2ncnc3[nH]ccc23)CC1` [AZD5363], the “IC50, cell viability 72 h” value with U-698-M (max 10 µM) came out at 8.27 µM.

For the compound `Cc1c2c(nn1C)CSCc1cc(n(C)n1)CSc1cc(c3ccccc3c1)OCCCc1c(C(=O)O)n(C)c3c-2c(Cl)ccc13` [AZD5991], in the assay on U-698-M (max 1 µM), the “IC50, cell viability 72 h” value amounted to 0.0692 µM.

Turning to `C[C@@H]1COCCN1c1cc(C2([S@](C)(=N)=O)CC2)nc(-c2ccnc3[nH]ccc23)n1` [AZD6738], in the assay on U-698-M (max 10 µM), the “IC50, cell viability 72 h” value turned out to be 2.21 µM.

As to `Cc1cc2ncnn2cc1Nc1ncc2c(n1)n(C1CCOCC1)c(=O)n2C` [AZD7648], the “IC50, cell viability 72 h” value with U-698-M (max 10 µM) is greater than 10 µM.

In the case of `C[C@@H](Nc1cc(F)cc(F)c1)c1cc(C(=O)N(C)C)cc2c(=O)cc(N3CCOCC3)oc12` [AZD8186], in the assay on U-698-M (max 10 µM), the “IC50, cell viability 72 h” value was greater than 10 µM.

As for `COc1cc(Nc2ncc3c(n2)-c2ccc(Cl)cc2C(c2c(F)cccc2OC)=NC3)ccc1C(=O)O` [Alisertib], in the assay with U-698-M (max 10 µM), the “IC50, cell viability 72 h” value came out at 8.03 µM.

On to `N.N.O=C([O-])C1(C(=O)[O-])CCC1.[Pt+2]` [Carboplatin], for which, in the assay on U-698-M (max 10 µM), the “IC50, cell viability 72 h” value is greater than 10 µM.

`C[C@@H](Oc1cc(-c2cnn(C3CCNCC3)c2)cnc1N)c1c(Cl)ccc(F)c1Cl` [Crizotinib]: in the assay on U-698-M (max 10 µM), the “IC50, cell viability 72 h” value amounted to 5.06 µM.

With `Cc1nc(Nc2ncc(C(=O)Nc3c(C)cccc3Cl)s2)cc(N2CCN(CCO)CC2)n1` [Dasatinib], in the assay on U-698-M (max 2 µM), the “IC50, cell viability 72 h” value is greater than 2 µM.

For the compound `N#Cc1cnc(Nc2cc(NC[C@H]3CNCCO3)c(C(F)(F)F)cn2)cn1` [SRA737] + Nc1ccn([C@@H]2O[C@H](CO)[C@@H](O)C2(F)F)c(=O)n1 [Gemcitabine] (first compound max 10 µM, 7x7, partner max 0.3 µM), the “combination Emax” value worked out at 0.782 in the assay with IGR-37 (Melanoma) [1]; 0.77 in assay [2]; 0.859 in assay [3]; 0.584 in assay [4]; 0.946 in assay [5]; 0.208 in [6]. In addition, the “combination Emax” value in assay [7] turned out to be 0.811; in assay [8], 0.863; in [9], 0.815; in [10], 0.469; in assay [11], 0.319; in [12] it was 0.859. Besides, the “combination Emax” value worked out at 0.829 with U-2-OS (Osteosarcoma) [13]; 0.808 in the assay with NY (Osteosarcoma) [14]; 0.318 in the assay on FU97 (Gastric Carcinoma) [15]; 0.957 in assay [16]; 0.54 in assay [17]; 0.852 in [18]. For the same compound, the Bliss excess with IGR-37 (Melanoma) [19] is -0.09; in assay [20] it was -0.0259; in assay [21] it was 0.0624; in assay [22] it was 0.0598; in assay [23] it was 0.0636; in assay [24], -0.0332. The Bliss excess was -0.0843 in [25]; 0.0476 in assay [26]; 0.0911 in assay [27]; -0.0551 in assay [28]; 0.0141 in [29]; -0.0976 in [30]. Moreover, the Bliss excess is 0.051 with U-2-OS (Osteosarcoma) [31]; -0.0439 in the assay on NY (Osteosarcoma) [32]; -0.0494 in the assay with FU97 (Gastric Carcinoma) [33]; 0.176 in assay [34]; 0.0128 in [35]; 0.0409 in [36].

`N#Cc1cnc(Nc2cc(NC[C@H]3CNCCO3)c(C(F)(F)F)cn2)cn1` [SRA737] + O=c1[nH]cc(F)c(=O)[nH]1 [5-Fluorouracil] (first compound max 10 µM, 7x7, partner max 20 µM): the “combination Emax” value worked out at 0.728 in the assay on IGR-37 (Melanoma) [1]; 0.378 in assay [2]; 0.72 in assay [3]; 0.311 in [4]; 0.84 in assay [5]; 0.197 in [6]. Also, the “combination Emax” value turned out to be 0.835 in assay [7]; 0.736 in [8]; 0.302 in assay [9]; 0.373 in [10]; 0.147 in assay [11]; 0.855 in assay [12]. Also, the “combination Emax” value with U-2-OS (Osteosarcoma) [13] was 0.625; in the assay on NY (Osteosarcoma) [14], 0.538; in the assay on FU97 (Gastric Carcinoma) [15], 0.167; in assay [16], 0.411; in assay [17], 0.381; in assay [18] it was 0.521. Besides, the Bliss excess in the assay with IGR-37 (Melanoma) [19] was -0.057; in [20] it was -0.046; in assay [21], 0.0718; in assay [22], -0.0727; in [23], 0.0671; in [24], -0.0379. The Bliss excess in [25] is -0.0482; in [26] it was -0.0104; in [27] it was 0.0047; in [28] it was 0.0035; in [29] it was -0.0132; in [30], -0.0681. Also, the Bliss excess in the assay with U-2-OS (Osteosarcoma) [31] is -0.0167; in the assay on NY (Osteosarcoma) [32] it was -0.0522; in the assay with FU97 (Gastric Carcinoma) [33], -0.0344; in [34], 0.0093; in assay [35] it was -0.0428; in assay [36], -0.0095.
